In patent US10597378B2 (priority 2017, dated 2020):
pEC50: −log10 of the molar value. Like-named read-outs stand apart in the source and are kept apart here. Values belong to the compound of their own block, whether it stands above or below them.

Biological target: MOR (Homo sapiens, UniProt P35372)
Test: cell-based
Set-up: expressed in transfected cells; host or cells: CHO-K1/MOR/Ga15 cells
Details: for FLIPR Ca2+ AUC: area under the [Ca2+]i fluorescence response curve, up to 90 s
Experimental: In an exemplary in vitro assay for identifying MOR agonists, cells that express a MOR are treated with a test compound in a cellular calcium fluorescent assay and calcium fluorescence intensity is then measured to determine whether the MOR is activated. A test compound is identified as a MOR agonist if the MOR is activated.
EC50 herein refers to the concentration of a compound that induces a response halfway between the baseline and the maximum after a specified exposure time. AUC refers to the area under the response curve, an indication of the compound's capability of activating a MOR.
One day before the assay, CORNING® black with clear flat bottom 96-well assay plates were coated with a 0.1 mg/mL Poly-L-Lysine solution. CHO-K1/MOR/Ga15 cells were suspended in the F12 medium and plated at a density of about 8×10^4 cells/well in […] medium. Cells were incubated in a humidified atmosphere of 10% CO2 at 37° C. overnight so as to reach an 80-90% confluent cell monolayer before the assay. On the day of the assay, 150 μL medium/well was removed from plate. […] Compounds and other reagents were dissolved in the assay buffer. […] The [Ca^2+]i fluorescence was measured up to 90 s after agonist injection.

[1] = CHO-K1/MOR/Ga15 cells, read-out: FLIPR Ca2+ EC50

Sequence of MOR (P35372 whole entry): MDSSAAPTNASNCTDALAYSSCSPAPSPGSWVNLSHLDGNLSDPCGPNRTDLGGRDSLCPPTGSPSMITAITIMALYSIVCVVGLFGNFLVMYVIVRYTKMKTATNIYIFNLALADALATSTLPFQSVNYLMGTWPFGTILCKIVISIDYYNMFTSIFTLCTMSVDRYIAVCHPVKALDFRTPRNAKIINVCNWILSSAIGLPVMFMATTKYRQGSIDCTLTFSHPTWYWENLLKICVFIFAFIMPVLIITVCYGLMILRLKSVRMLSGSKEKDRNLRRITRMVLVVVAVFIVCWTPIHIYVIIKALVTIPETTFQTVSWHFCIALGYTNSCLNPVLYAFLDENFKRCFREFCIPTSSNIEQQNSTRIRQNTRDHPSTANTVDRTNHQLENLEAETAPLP

Compound: O=C(NCC1NCCc2ccccc21)C1CCCCC1 (stereo not shown) [Compound 5, N-(1,2,3,4-Tetrahydro-1-isoquinolinylmethyl)cyclohexanecarboxamide]
pEC50 [1]: 5.20
FLIPR Ca2+ AUC: 6142

Compound: O=C(NCC1c2ccccc2CCN1S(=O)(=O)c1ccc(Br)cc1OC(F)(F)F)C1CCCCC1 (stereo not shown) [Compound 6, N-[(2-{[4-Bromo-2-(trifluoromethoxy)phenyl]sulfonyl}-1,2,3,4-tetrahydro-1-isoquinolinyl)methyl]cyclohexanecarboxamide]
pEC50 [1]: 5.95
FLIPR Ca2+ AUC: 15139

Compound: O=C(NCC1c2ccccc2CCN1S(=O)(=O)c1ccc(Br)cc1C(F)(F)F)C1CCCCC1 (stereo not shown) [Compound 7, N-[(2-{[4-Bromo-2-(trifluoromethyl)phenyl]sulfonyl}-1,2,3,4-tetrahydro-1-isoquinolinyl)methyl]cyclohexanecarboxamide]
pEC50 [1]: 5.59
FLIPR Ca2+ AUC: 7697

Compound: Cc1cc(Br)ccc1S(=O)(=O)N1CCc2ccccc2C1CNC(=O)C1CCCCC1 (stereo not shown) [Compound 8, N-({2-[(4-Bromo-2-methylphenyl)sulfonyl]-1,2,3,4-tetrahydro-1-isoquinolinyl}methyl)cyclohexanecarboxamide]
pEC50 [1]: > 5.00
pEC50 (FLIPR Ca2+ EC50, CHO-K1/MOR/Ga15 cells): 5.20
FLIPR Ca2+ AUC: 3757

Compound: O=C(NCC1c2ccccc2CCN1S(=O)(=O)c1ccc(Br)cc1)C1CCCCC1 (stereo not shown) [Compound 9, N-({2-[(4-Bromophenyl)sulfonyl]-1,2,3,4-tetrahydro-1-isoquinolinyl}methyl)cyclohexanecarboxamide]
pEC50 [1]: 5.05
FLIPR Ca2+ AUC: 6103

Compound: O=C(NCC1c2ccccc2CCN1S(=O)(=O)c1ccc(Br)cc1Br)C1CCCCC1 (stereo not shown) [Compound 10, N-({2-[(2,4-Dibromophenyl)sulfonyl]-1,2,3,4-tetrahydro-1-isoquinolinyl}methyl)cyclohexanecarboxamide]
pEC50 [1]: 5.48
FLIPR Ca2+ AUC: 7023

Compound: O=C(NCC1c2ccccc2CCN1S(=O)(=O)c1ccc(Br)cc1Cl)C1CCCCC1 (stereo not shown) [Compound 11, N-({2-[(4-Bromo-2-chlorophenyl)sulfonyl]-1,2,3,4-tetrahydro-1-isoquinolinyl}methyl)cyclohexanecarboxamide]
pEC50: 5.25
FLIPR Ca2+ AUC: 7597

Compound: O=C(NCC1c2ccccc2CCN1S(=O)(=O)c1ccc(Br)cc1F)C1CCCCC1 (stereo not shown) [Compound 12, N-({2-[ (4-Bromo-2-fluorophenyl)sulfonyl]-1,2,3,4-tetrahydro-1-isoquinolinyl}methyl)cyclohexanecarboxamide]
pEC50 [1]: 5.02
FLIPR Ca2+ AUC: 7271

Compound: O=C(NCC1c2ccccc2CCN1S(=O)(=O)c1ccccc1OC(F)(F)F)C1CCCCC1 (stereo not shown) [Compound 13, N-[(2-{[2-(Trifluoromethoxy)phenyl]sulfonyl}-1,2,3,4-tetrahydro-1-isoquinolinyl)methyl]cyclohexanecarboxamide]
pEC50 [1]: 5.48
FLIPR Ca2+ AUC: 5152

Compound: COc1ccccc1S(=O)(=O)N1CCc2ccccc2C1CNC(=O)C1CCCCC1 (stereo not shown) [Compound 14, N-({2-[(2-Methoxyphenyl)sulfonyl]-1,2,3,4-tetrahydro-1-isoquinolinyl}methyl)cyclohexanecarboxamide]
pEC50 [1]: 4.65
FLIPR Ca2+ AUC: 3327

Compound: O=C(NCC1c2ccccc2CCN1S(=O)(=O)c1ccc(F)cc1C(F)(F)F)C1CCCCC1 (stereo not shown) [Compound 15, N-[(2-{[4-Fluoro-2-(trifluoromethyl)phenyl]sulfonyl}-1,2,3,4-tetrahydro-1-isoquinolinyl)methyl]cyclohexanecarboxamide]
pEC50 [1]: 5.23
FLIPR Ca2+ AUC: 5153

Compound: Cc1cc(F)ccc1S(=O)(=O)N1CCc2ccccc2C1CNC(=O)C1CCCCC1 (stereo not shown) [Compound 16, N-({2-[(4-Fluoro-2-methylphenyl)sulfonyl]-1,2,3,4-tetrahydro-1-isoquinolinyl}methyl)cyclohexanecarboxamide]
pEC50 [1]: 5.00
FLIPR Ca2+ AUC: 6213

Compound: O=C(NCC1c2ccccc2CCN1S(=O)(=O)c1ccc(Cl)cc1)C1CCCCC1 (stereo not shown) [Compound 17, N-({2-[(4-Chlorophenyl)sulfonyl]-1,2,3,4-tetrahydro-1-isoquinolinyl}methyl)cyclohexanecarboxamide]
pEC50: 5.22
FLIPR Ca2+ AUC: 6144

Compound: Cc1ccc(S(=O)(=O)N2CCc3ccccc3C2CNC(=O)C2CCCCC2)cc1 (stereo not shown) [Compound 18, N-({2-[(4-Methylphenyl)sulfonyl]-1,2,3,4-tetrahydro-1-isoquinolinyl}methyl)cyclohexanecarboxamide]
pEC50: 5.19
FLIPR Ca2+ AUC: 6808

Compound: COc1ccc(S(=O)(=O)N2CCc3ccccc3C2CNC(=O)C2CCCCC2)cc1 (stereo not shown) [Compound 19, N-({2-[(4-Methoxyphenyl)sulfonyl]-1,2,3,4-tetrahydro-1-isoquinolinyl}methyl)cyclohexanecarboxamide]
pEC50 [1]: 5.11
FLIPR Ca2+ AUC: 3418

pEC50 [1]: 6.01
Compound: CC1CCC(C(=O)NCC2c3ccccc3CCN2S(=O)(=O)c2ccc(Br)cc2OC(F)(F)F)CC1 (stereo not shown) [Compound 20, N-[(2-{[4-Bromo-2-(trifluoromethoxy)phenyl]sulfonyl}-1,2,3,4-tetrahydro-1-isoquinolinyl)methyl]-4-methylcyclohexanecarboxamide]

pEC50 [1]: 6.09
Compound: O=C(NCC1c2ccccc2CCN1S(=O)(=O)c1ccc(Br)cc1OC(F)(F)F)C1CCCC1 (stereo not shown) [Compound 21, N-[(2-{[4-Bromo-2-(trifluoromethoxy)phenyl]sulfonyl}-1,2,3,4-tetrahydro-1-isoquinolinyl)methyl]cyclopentanecarboxamide]

Compound: O=C(NCC1c2ccccc2CCN1S(=O)(=O)c1ccc(Br)cc1OC(F)(F)F)c1ccccc1 (stereo not shown) [Compound 24, N-[(2-{[4-Bromo-2-(trifluoromethoxy)phenyl]sulfonyl}-1,2,3,4-tetrahydro-1-isoquinolinyl)methyl]benzamide]
pEC50 [1]: 5.25
FLIPR Ca2+ AUC: 9294

Compound: O=C(NCC1c2ccccc2CCN1S(=O)(=O)c1ccc(Br)cc1OC(F)(F)F)N1CCCCC1 (stereo not shown) [Compound 25, N-[(2-{[4-Bromo-2-(trifluoromethoxy)phenyl]sulfonyl}-1,2,3,4-tetrahydro-1-isoquinolinyl)methyl]-1-piperidinecarboxamide]
pEC50 [1]: 5.56
FLIPR Ca2+ AUC: 10498

Compound: O=C(NCC1c2ccccc2CCN1S(=O)(=O)c1ccc(Br)cc1OC(F)(F)F)N1CCCC1 (stereo not shown) [Compound 26, N-[(2-{[4-Bromo-2-(trifluoromethoxy)phenyl]sulfonyl}-1,2,3,4-tetrahydro-1-isoquinolinyl)methyl]-1-pyrrolidinecarboxamide]
pEC50 [1]: 5.36
FLIPR Ca2+ AUC: 12484

Compound: O=C(NCC1c2ccccc2CCN1S(=O)(=O)c1ccc(Br)cc1OC(F)(F)F)C1CCC1 (stereo not shown) [Compound 27, N-[(2-{[4-Bromo-2-(trifluoromethoxy)phenyl]sulfonyl}-1,2,3,4-tetrahydro-1-isoquinolinyl)methyl]cyclobutanecarboxamide]
pEC50 [1]: 5.87
FLIPR Ca2+ AUC: 13461

Compound: O=C(NCC1c2ccccc2CCN1S(=O)(=O)c1ccc(Br)cc1OC(F)(F)F)C1CC1 (stereo not shown) [Compound 28, N-[(2-{[4-Bromo-2-(trifluoromethoxy)phenyl]sulfonyl}-1,2,3,4-tetrahydro-1-isoquinolinyl)methyl]cyclopropanecarboxamide]
pEC50 [1]: 5.30
FLIPR Ca2+ AUC: 11880

Compound: CC(C)(C)C(=O)NCC1c2ccccc2CCN1S(=O)(=O)c1ccc(Br)cc1OC(F)(F)F (stereo not shown) [Compound 29, N-[(2-{[4-Bromo-2-(trifluoromethoxy)phenyl]sulfonyl}-1,2,3,4-tetrahydro-1-isoquinolinyl)methyl]-2,2-dimethylpropanamide]
pEC50 [1]: 5.34
FLIPR Ca2+ AUC: 12780

Compound: O=C(NCC1NCCc2ccccc21)N1CCCCC1 (stereo not shown) [Compound 35, N-(1,2,3,4-Tetrahydro-1-isoquinolinylmethyl)-1-piperidinecarboxamide]
pEC50 [1]: 5.48

Compound: O=C(NCC1NCCc2ccccc21)N1CCOCC1 (stereo not shown) [Compound 36, N-(1,2,3,4-Tetrahydro-1-isoquinolinylmethyl)-4-morpholinecarboxamide]
pEC50 [1]: 5.09

Compound: O=C(NCC1NCCc2ccccc21)N1CCCC1 (stereo not shown) [Compound 37, N-(1,2,3,4-Tetrahydro-1-isoquinolinylmethyl)-1-pyrrolidinecarboxamide]
pEC50 [1]: 5.40
FLIPR Ca2+ AUC: 3480

pEC50 (read-out: FLIPR Ca2+ EC50): 6.85
Compound: Cc1ccc(C(=O)NCC2NCCc3ccccc32)cc1 (stereo not shown) [Compound 38, 4-Methyl-N-(1,2,3,4-tetrahydro-1-isoquinolinylmethyl)benzamide]

Compound: CC1CCC(C(=O)NCC2NCCc3ccccc32)CC1 (stereo not shown) [Compound 39, 4-Methyl-N-(1,2,3,4-tetrahydro-1-isoquinolinylmethyl)cyclohexanecarboxamide]
pEC50 [1]: 5.82
FLIPR Ca2+ AUC: 12657

Compound: CCC1CCC(C(=O)NCC2NCCc3ccccc32)CC1 (stereo not shown) [Compound 40, 4-Ethyl-N-(1,2,3,4-tetrahydro-1-isoquinolinylmethyl)cyclohexanecarboxamide]
pEC50 [1]: 5.95
FLIPR Ca2+ AUC: 10059

Compound: CC1CCCCC1C(=O)NCC1NCCc2ccccc21 (stereo not shown) [Compound 41, 2-Methyl-N-(1,2,3,4-tetrahydro-1-isoquinolinylmethyl)cyclohexanecarboxamide]
pEC50 [1]: 5.00
FLIPR Ca2+ AUC: 5627

Compound: COC1CCC(C(=O)NCC2NCCc3ccccc32)CC1 (stereo not shown) [Compound 42, 4-Methoxy-N-(1,2,3,4-tetrahydro-1-isoquinolinylmethyl)cyclohexanecarboxamide]
pEC50 [1]: 5.18
FLIPR Ca2+ AUC: 5538
